Reference: patent US8729089B2 (Gilead Sciences, Inc., priority 2006, dated 2014)

How the values were obtained:
[1] = system: HCV replicon in human hepatoma Huh-7 cell line; experiment: Anti-HCV replicon assay (EC50, luciferase); type: cell-based
In short: (§1)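 Huh-7 cells carrying an HCV replicon (6000/well) exposed to 3-fold serial compound dilutions for 3 days at 37 °C, final DMSO 0.5% where used. EC50 read as replicon luciferase luminescence after cell lysis; CC50 from CellTiter-Glo luminescence after 10 min at room temperature.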

Huh-7 HCV replicon cells = experiment: CC50 assay (CellTiter-Glo) in Huh-7 HCV replicon cells; type: cell-based, human; details: 3 days incubation, CellTiter-Glo readout
In short: as §1

[2] = as above; type: cell-based, human; details: human, 3 days incubation, CellTiter-Glo readout
In short: as §1

[3] = Huh-7 HCV replicon cells, 3 days incubation, luciferase readout

Row | SMILES | EC50 [1, 3] | CC50 (Huh-7 HCV replicon cells) | EC50 ([1]; Hepatitis C virus, Huh-7, 72 h) | CC50 at 3 days [2]
1 | CC(Nc1nc(NCC(F)(F)F)c2nc(-c3ccc(F)cc3)ccc2n1)c1ccc(S(N)(=O)=O)cc1 (stereo not drawn) [Example 250, 4-{1-[6-(4-Fluoro-phenyl)-4-(2,2,2-trifluoro-ethylamino)-pyrido[3,2-d]pyrimidin-2-ylamino]-ethyl}-benzenesulfonamide] | < 0.1 µM | < 5 µM | – | –
2 | CC(Nc1nc(NCC(F)(F)F)c2nc(-c3ccc(F)cc3)ccc2n1)c1ccc(S(N)(=O)=O)cc1 (stereo not drawn) [Example 257, 4-{1-[6-(4-Fluoro-phenyl)-4-(2,2,2-trifluoro-ethylamino)-pyrido[3,2-d]pyrimidin-2-ylamino]-ethyl}-benzenesulfonamide] | < 0.1 µM | 5 to 25 µM | – | –
3 | NC(=O)c1ccc(-c2ccc3nc(NCc4ccc(S(N)(=O)=O)cc4)nc(C4CC4)c3n2)cc1 [Example 292, 4-[4-Cyclopropyl-2-(4-sulfamoyl-benzylamino)-pyrido[3,2-d]pyrimidin-6-yl]-benzamide] | – | – | < 0.1 µM | 5 to 25 µM
4 | NS(=O)(=O)c1ccc(CNc2nc(C3CC3)c3nc(-c4ccc(C(=O)NC5CC5)cc4)ccc3n2)cc1 [Example 293, N-Cyclopropyl-4-[4-cyclopropyl-2-(4-sulfamoyl-benzylamino)-pyrido[3,2-d]pyrimidin-6-yl]-benzamide] | – | – | < 0.1 µM | < 5 µM
5 | NS(=O)(=O)c1ccc(CNc2nc(C3CC3)c3nc(-c4ccc(F)cc4)ccc3n2)cc1 [Example 294, 4-{[4-Cyclopropyl-6-(4-fluoro-phenyl)-pyrido[3,2-d]pyrimidin-2-ylamino]-methyl}-benzenesulfonamide] | – | – | < 0.1 µM | < 5 µM
6 | CCCc1nc(NCc2ccc(F)cc2)nc2ccc(-c3ccc(NC(=O)C(C)(C)N)cc3)nc12 [Example 295, 2-Amino-N-{4-[2-(4-fluoro-benzylamino)-4-propyl-pyrido[3,2-d]pyrimidin-6-yl]-phenyl}-2-methyl-propionamide] | – | – | < 0.1 µM | > 25 µM
7 | NS(=O)(=O)c1ccc(CNc2nc(NC3CC3)c3nc(-c4ccc(F)cc4)ccc3n2)cc1 [Example 296, 4-{[4-Cyclopropylamino-6-(4-fluoro-phenyl)-pyrido[3,2-d]pyrimidin-2-ylamino]-methyl}-benzenesulfonamide] | – | – | < 0.1 µM | > 25 µM
8 | CCNc1nc(NCc2ccc(S(N)(=O)=O)cc2)nc2ccc(-c3ccc(F)cc3)nc12 [Example 297, 4-{[4-Ethylamino-6-(4-fluoro-phenyl)-pyrido[3,2-d]pyrimidin-2-ylamino]-methyl}-benzenesulfonamide] | – | – | < 0.1 µM | < 5 µM
9 | Fc1ccc(CNc2nc(N[C@@H]3CCOC3)c3nc(-c4ccc(F)cc4)ccc3n2)cc1 [Example 298, N2-(4-Fluoro-benzyl)-6-(4-fluoro-phenyl)-N4-(tetrahydro-furan-3-yl)-pyrido[3,2-d]pyrimidine-2,4-diamine] | – | – | < 0.1 µM | 5 to 25 µM
10 | CS(=O)(=O)CCNc1nc(NCc2ccc(F)cc2)nc2ccc(-c3ccc(F)cc3)nc12 [Example 299, N2-(4-Fluoro-benzyl)-6-(4-fluoro-phenyl)-N4-(2-methanesulfonyl-ethyl)-pyrido[3,2-d]pyrimidine-2,4-diamine] | – | – | < 0.1 µM | 5 to 25 µM
11 | CC1(Oc2nc(NCc3ccc(S(N)(=O)=O)cc3)nc3ccc(-c4ccc(F)cc4)nc23)CC1 [Example 301, 4-{[6-(4-Fluoro-phenyl)-4-(1-methyl-cyclopropoxy)-pyrido[3,2-d]pyrimidin-2-ylamino]-methyl}-benzenesulfonamide] | – | – | < 0.1 µM | < 5 µM
12 | N#CC1(Nc2nc(NCc3ccc(S(N)(=O)=O)cc3)nc3ccc(-c4ccc(F)cc4)nc23)CC1 [Example 303, 4-{[4-(1-Cyano-cyclopropylamino)-6-(4-fluoro-phenyl)-pyrido[3,2-d]pyrimidin-2-ylamino]-methyl}-benzenesulfonamide] | – | – | < 0.1 µM | 5 to 25 µM
